# Measurements as given in patent US20240279275A1, “HEXAPEPTIDE DERIVATIVE AND COSMETIC COMPOSITION OR PHARMACEUTICAL COMPOSITION AND USE THEREOF” (SHENZHEN WINKEY TECHNOLOGY CO., LTD, priority 2021, published 2024).
# Residues, ends and D or L forms follow the SMILES beside them. *: point of attachment. Caffeoyl = O=C(/C=C/c1ccc(O)c(O)c1)*; Galloyl = O=C(c1cc(O)c(O)c(O)c1)*
# Columns and labels:
# [1] = system: NIH3T3 cells; experiment: Cell proliferation assay (MTT); type: cell-based, Mouse; details: 72 h
# Source text: (§1) Mouse skin fibroblasts (NIH3T3) were purchased from the Shanghai Cell Bank of China Center for Type Culture Collection under the Chinese Academy of Sciences.
# • CA, at a test concentration of 1 ppm, 10 ppm, 100 ppm, and 500 ppm, respectively; • GA, at a test concentration of 1 ppm, 10 ppm, 100 ppm, and 500 ppm, respectively; • the peptide H-Gly-Pro-Gln-Gly-Pro-Gln-NH2 (hereinafter referred to as the reference peptide), at a test concentration of 1 ppm, 10 ppm, 100 ppm, and 500 ppm, respectively; • the peptide (2) CA-Gly-Pro-Gln-Gly-Pro-Gln-NH2, at a test concentration of 1 ppm, 10 ppm, 100 ppm, and 500 ppm, respectively; • the peptide (4) GA-Gly-Pro-Gln-Gly-Pro-Gln-NH2, at a test concentration of 1 ppm, 10 ppm, 100 ppm, and 500 ppm, respectively.
# The purpose of this experiment is to evaluate cell viability 72 h after administration and determine the effect of the peptide derivatives of the present invention on cell proliferation by using NIH3T3 cells as the experiment subject.
# NIH3T3 cells in good exponential growth phase were taken. A 0.25% trypsin digestion solution was added so that digestion allowed the adherent cells to fall off, counting (1−4)×10^5 cells/mL, which were prepared into a cell suspension.
# The cell suspension was inoculated on a 96-well plate with 200 μL/well, and cultured in a constant-temperature CO2 incubator for 24 h.
# After changing the medium, the cell suspension was added to drug groups and the control group, respectively, each of which was placed in 20 μL/well and incubated in a 37° C., 5% CO2 incubator for 72 h.
# Then 20 μL 5 mg/ml MTT was added to each well and the incubation was continued for 4 h in the 37° C., 5% CO2 incubator. The original solution was removed and 150 μL/well DMSO was added. The plate was placed on a plate shaker for shaking for 5 min. A microplate reader was used to determine the OD value of each well at a wavelength of 570 nm, and calculate the cell viability.
# Cell viability=[OD(administration well)−OD(zero adjustment well)]/[OD(control well)−OD(zero adjustment well)]×100%
# [2] = system: NIH3T3 cells; experiment: β-galactosidase staining assay, UV photoaging model; type: cell-based, Mouse; details: after UV irradiation, 24 h
# Source text: as §1
# • CA, at a test concentration of 1 ppm, 10 ppm, and 100 ppm, respectively; • GA, at a test concentration of 10 ppm; • the reference peptide, at a test concentration of 1 ppm, 10 ppm, and 100 ppm, respectively; • the peptide (2), at a test concentration of 1 ppm, 10 ppm, and 100 ppm, respectively; • the peptide (4) at a test concentration of 10 ppm. 3.
# The purpose of this experiment is to test the impact of the peptide derivatives of the present invention on cell senescence using a β-galactosidase staining assay to evaluate the anti-photoaging capability.
# (§2) The frozen NIH3T3 cells were cultured and passaged at a ratio of 1:2 to about the 5th generation, and the cells in better growth were selected as experiment subjects.
# The cells were inoculated into a 96-well plate at 10,000 cells/well, and when the cells were approximately 80% full, a UV photoaging model was established. In the control group, a PBS solution was added, supplemented with the culture medium to 200 μL, while no UV irradiation was performed; For the UV group and the drug group, a proper amount of PBS was added to wash the culture repeatedly until colorless, followed by adding 50 μL PBS and irradiating under an 80 J/cm^3 UV light. The distance between the light source and the culture bottle was 15 cm. After irradiation, the PBS was removed. In the UV group, a PBS solution and the culture medium were added to 200 μL; in the drug group, the culture medium and the drug diluted in a certain ratio were added to 200 μL. The control group, the UV group, and the drug group were further incubated in a 37° C., 5% CO2 incubator for 24 h. The culture medium was removed. 100 μL 4% paraformaldehyde was added to each well and fixed at room temperature for 15 min, followed by washing with PBS three times, adding a β-galactosidase staining agent (X-gal 0.01%, potassium ferricyanide 0.16%, ferrocyanide potassium 0.02%) 50 μL/well, sealing with plastic wrap, and staining in a 37° C. incubator in the dark for 12 h. The staining solution was removed. Each group was washed with PBS three times, and photographed under a light microscope. The number of cells in the field of view and the number of stained cells were counted.
# UV irradiation can cause cell senescence, and the cytoplasm of senescent cells are stained blue-green by the β-galactosidase agent (shown as the dark part in the black and white images). This experiment evaluates the anti-photoaging capability of the peptide derivatives of the present invention through staining morphology images and senescent cell staining statistics.
# [3] = system: NIH3T3 cells; experiment: ROS staining assay, UV photoaging model; type: cell-based, Mouse; details: after UV irradiation, 24 h, ROS fluorescent probe
# Source text: as §1
# • CA, at a test concentration of 1 ppm; • GA, at a test concentration of 10 ppm; • the reference peptide, at a test concentration of 1 ppm and 10 ppm, respectively; • the peptide (2), at a test concentration of 1 ppm; • the peptide (4), at a test concentration of 10 ppm.
# Another indication of aging is an increase in intracellular oxidative stress levels, that is, an increase in ROS, and aging can be slowed down by alleviating oxidative stress. The purpose of this experiment is to test the impact of the peptide derivatives of the present invention on oxidative stress levels using ROS staining assay, thereby evaluating the antioxidant effect.
# as §2
# The cells were inoculated into a 96-well plate at 10,000 cells/well, and when the cells were approximately 80% full, a UV photoaging model was established. In the control group, a PBS solution was added, supplemented with the culture medium to 200 μL, while no UV irradiation was performed; For the UV group and the drug group, a proper amount of PBS was added to wash the culture repeatedly until colorless, followed by adding 50 μL PBS and irradiating under an 80 J/cm^3 UV light. The distance between the light source and the culture bottle was 15 cm. After irradiation, the PBS was removed. In the UV group, a PBS solution and the culture medium were added to 200 μL; in the drug group, the culture medium and the drug diluted in a certain ratio were added to 200 μL. The control group, the UV group, and the drug group were further incubated in a 37° C., 5% CO2 incubator for 24 h.
# The culture medium was removed. Each group was stained according to the ROS probe instructions for 20 min and was observed under a fluorescence microscope.
# [4] = cited from earlier work
# [5] = 500 ppm, compared with the control group
# [6] = test concentrations 1 ppm to 100 ppm
Compound,"effect on NIH3T3 cell viability / toxicity [1, 5]","proportion of senescent cells (β-galactosidase staining) [2, 6]",ROS level per unit cells ([3]; 1 ppm),solubility in cold water [4],"effect on NIH3T3 cell viability / toxicity ([1]; 100 ppm, compared with the control group)",proportion of senescent cells (β-galactosidase staining) ([2]; 10 ppm),ROS level per unit cells ([3]; 10 ppm),toxic effect on NIH3T3 cells ([1]; high concentrations),"effect on NIH3T3 cell viability ([1]; 10 ppm to 500 ppm, compared with the control group)",solubility in water ([4]; water)
"O=C(O)C=Cc1ccc(O)c(O)c1 [CA, 3,4-dihydroxycinnamic acid]",significant toxicity,unable to reduce the proportion of senescent cells,reduced the ROS level per unit cells to a certain extent,slightly soluble,–,–,–,–,–,–
"O=C(O)c1cc(O)c(O)c(O)c1 [GA, 3,4,5-trihydroxybenzoic acid]",significant toxicity,–,–,insoluble,significant toxicity,unable to reduce the proportion of senescent cells,had a certain effect in reducing ROS,–,–,–
"NC(=O)CCC(NC(=O)C1CCCN1C(=O)CNC(=O)C(CCC(N)=O)NC(=O)C1CCCN1C(=O)CNC(=O)/C=C/c1ccc(O)c(O)c1)C(N)=O (stereo not drawn) [peptide (2), CA-Gly-Pro-Gln-Gly-Pro-Gln-NH2] (Caffeoyl-GPQGPQ-NH2; configuration not given here)",significantly improve cell viability,significantly reduced the proportion of senescent cells,significantly reduced the expression of ROS per unit cells,–,–,–,–,–,–,–
"NC(=O)CCC(NC(=O)C1CCCN1C(=O)CNC(=O)C(CCC(N)=O)NC(=O)C1CCCN1C(=O)CNC(=O)c1cc(O)c(O)c(O)c1)C(N)=O (stereo not drawn) [peptide (4), GA-Gly-Pro-Gln-Gly-Pro-Gln-NH2] (Galloyl-GPQGPQ-NH2; configuration not given here)",–,–,–,–,–,reduced the proportion of senescent cells,more significantly reduced the expression of ROS per unit cells,did not have a toxic effect,–,–
"H-Gly-Pro-Gln-Gly-Pro-Gln-NH2 (H-GPQGPQ-NH2) [reference peptide, collagen peptide of EP1406589B1]",–,unable to reduce the proportion of senescent cells,failed to reduce the ROS level per unit cells,–,–,–,had a certain effect in reducing ROS,–,improved cell viability,good solubility in water
